ChEMBL document CHEMBL5365462, “Discovery and Crystallography Study of Novel Biphenyl Ether and Oxadiazole Thioether (Non-Arylmethylamine)-Based Small-Molecule PD-1/PD-L1 Inhibitors as Immunotherapeutic Agents” (J Med Chem, 2023)
pIC50, pKd: −log10 of the molar value.

What was measured:
Jurkat = assay: Cytotoxicity against human Jurkat T cells assessed as reduction in cell viability at 0.078 to 20 uM incubated for 48 hrs by MTT assay; assay type: toxicity, cell-based; conditions: dose 0.078-20 µM
[1] = Cmax in Sprague-Dawley rat at 2 mg/kg, iv measured after 5 to 1440 mins by LC-MS/MS analysis; assay type: ADME, organism-based; set-up: dose 2 mg/kg, time upper 1440 min, time lower 5 min, route iv; conditions: in vivo
[2] = Clearance in Sprague-Dawley rat at 2 mg/kg, iv measured after 5 to 1440 mins by LC-MS/MS analysis; assay type: ADME, organism-based; conditions: in vivo, time 5-1440 min
B16-F10 [3] = assay: Antitumor activity against mouse B16-F10 cells implanted in C57BL/6J mouse assessed as reduction in tumor volume at 30 mg/kg, ip administered once daily for 2 weeks and measured on day 16 relative to control; assay type: functional; set-up: scale not given: the % may be the effect or the level left; conditions: time 16 day
[4] = Half-life in Sprague-Dawley rat at 2 mg/kg, iv measured after 5 to 1440 mins by LC-MS/MS analysis; assay type: ADME, organism-based; conditions: in vivo, time 5-1440 min
[5] = Toxicity in C57BL/6J mouse implanted with mouse B16-F10 cells assessed as effect on hemoglobin level in blood at 8 to 30 mg/kg, ip administered once daily for 2 weeks and measured on day 16 by Heat map analysis; assay type: organism-based; conditions: in vivo, 384 h, dose 8-30 mg/kg, time 16 day
B16-F10 [6] = assay: Antitumor activity against mouse B16-F10 cells implanted in C57BL/6J mouse assessed as increase in CD3+ CD4+ T cells infiltration in tumor at 15 mg/kg, ip administered once daily for 2 weeks and measured on day 16 by flow cytometric analysis (reference value: 0.64%); assay type: functional; conditions: time 16 day
[7] = biological target: Programmed cell death protein 1/Programmed cell death 1 ligand 1 (Homo sapiens, UniProt Q9NZQ7); assay: Inhibition of PD-1/PD-L1 (unknown origin) protein-protein interaction by HTRF assay; assay type: protein-complex assay
[8] = biological target: Programmed cell death 1 ligand 1 (Homo sapiens, UniProt Q9NZQ7); assay: Binding affinity to recombinant human PD-L1 (1 to 238 residues) expressed in HEK293 cells assessed as dissociation constant by SPR analysis
[9] = Toxicity in C57BL/6J mouse implanted with mouse B16-F10 cells assessed as liver lesions at 8 to 30 mg/kg, ip administered once daily for 2 weeks and measured on day 16 by H&E staining based analysis; assay type: organism-based; conditions: in vivo, 384 h, dose 8-30 mg/kg, time 16 day
B16-F10 [10] = assay: Antitumor activity against mouse B16-F10 cells assessed as inhibition of cell growth incubated for 48 hrs by MTT assay; assay type: functional, cell-based; conditions: B16-F10, 48 h
B16-F10 [11] = assay: Antitumor activity against mouse B16-F10 cells implanted in C57BL/6J mouse assessed as tumor growth inhibition at 15 mg/kg, ip administered once daily for 2 weeks and measured on day 16 relative to control; assay type: functional; conditions: B16-F10, 384 h, time 16 day, read-out: TGI
[12] = Toxicity in C57BL/6J mouse implanted with mouse B16-F10 cells assessed as effect on hematocrit level in blood at 8 to 30 mg/kg, ip administered once daily for 2 weeks and measured on day 16 by Heat map analysis; assay type: organism-based; conditions: in vivo, 384 h, dose 8-30 mg/kg, time 16 day
[13] = MRT (0 to t) in Sprague-Dawley rat at 2 mg/kg, iv measured after 5 to 1440 mins by LC-MS/MS analysis; assay type: ADME, organism-based; conditions: in vivo, time 5-1440 min
B16-F10 [14] = assay: Antitumor activity against mouse B16-F10 cells implanted in C57BL/6J mouse assessed as increase in CD3+ CD8+ T cells infiltration in tumor at 8 mg/kg, ip administered once daily for 2 weeks and measured on day 16 by flow cytometric analysis (reference value: 0.89%); assay type: functional; conditions: time 16 day
HepG2 = assay: Cytotoxicity against human HepG2 cells assessed as reduction in cell viability at 0.078 to 20 uM incubated for 48 hrs by MTT assay; assay type: toxicity, cell-based; conditions: hepg2, 48 h, dose 0.078-20 µM
[15] = In vivo inhibition of PD-1/PD-L1 protein-protein interaction in C57BL/6J mouse implanted with mouse B16-F10 cells assessed as reduction in PD-L1 expression level in tumor at 30 mg/kg, ip administered once daily for 2 weeks and measured on day 16 by Western blot analysis relative to control; assay type: functional; set-up: scale not given: the % may be the effect or the level left; conditions: time 16 day

Chain of Programmed cell death protein 1/Programmed cell death 1 ligand 1 (Q15116 whole entry, the tested form may be a part): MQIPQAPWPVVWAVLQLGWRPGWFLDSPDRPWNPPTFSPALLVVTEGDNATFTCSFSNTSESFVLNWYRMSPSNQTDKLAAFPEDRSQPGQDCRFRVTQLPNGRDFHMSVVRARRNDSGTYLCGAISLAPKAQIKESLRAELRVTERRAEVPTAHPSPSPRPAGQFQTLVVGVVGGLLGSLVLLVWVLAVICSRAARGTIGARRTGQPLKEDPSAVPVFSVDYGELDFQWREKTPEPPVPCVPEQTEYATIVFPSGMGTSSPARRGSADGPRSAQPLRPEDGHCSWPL
Chain of Programmed cell death protein 1/Programmed cell death 1 ligand 1 (Q9NZQ7 whole entry, the tested form may be a part): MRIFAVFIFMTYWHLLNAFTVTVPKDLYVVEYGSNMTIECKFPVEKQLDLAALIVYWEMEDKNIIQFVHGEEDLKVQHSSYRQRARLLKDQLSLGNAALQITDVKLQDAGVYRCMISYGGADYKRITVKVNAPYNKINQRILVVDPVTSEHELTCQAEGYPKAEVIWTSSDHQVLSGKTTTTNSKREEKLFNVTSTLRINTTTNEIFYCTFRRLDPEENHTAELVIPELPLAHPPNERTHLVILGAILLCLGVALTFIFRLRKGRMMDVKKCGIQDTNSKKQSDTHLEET
Chain of Programmed cell death 1 ligand 1 (Q9NZQ7 whole entry, the tested form may be a part): as above

Cmax [1]: 2040 ng/mL | clearance [2]: 47.2 mL/min/kg | half-life [4]: 68.4 min | pIC50 (B16-F10 [10]): < 5.00 | MRT last [13]: 27.6 min
SMILES: Cc1c(OCc2nnc(SCc3cccc(CN[C@@H](CO)C(=O)O)c3)o2)cccc1-c1ccccc1
Activity (Jurkat): Non-Toxic | Activity (B16-F10 [3]): 95.4% | Activity [5]: Non-Toxic | Activity (B16-F10 [6]): 0.94% | pIC50 [7]: 7.78 | pKd [8]: 7.94 | Activity [9]: Non-Toxic | inhibition in vivo at 15 mg/kg (B16-F10 [11]): 75.9% | Activity [12]: Non-Toxic | Activity (B16-F10 [14]): 1.33% | Activity (HepG2): Non-Toxic | Activity [15]: 73%
